Among the data in patent EP0237929B1, “3,5-Disubstituted pyrocatechol derivatives” (F. HOFFMANN-LA ROCHE AG, priority 1986, dated 1987) are IC50 and LD50 values, retold here.

pIC50: −log10 of the molar value.

Series [1] concerns the target T1, Catechol-O-Methyl-Transferase (COMT) (Rattus norvegicus, UniProt P22734).
T1 construct: Man inkubiert Rattenleber-Homogenate in Gegenwart eines geeigneten Substrates; from tissue; host or cells: rat liver homogenate
T1 sequence (P22734 1-264): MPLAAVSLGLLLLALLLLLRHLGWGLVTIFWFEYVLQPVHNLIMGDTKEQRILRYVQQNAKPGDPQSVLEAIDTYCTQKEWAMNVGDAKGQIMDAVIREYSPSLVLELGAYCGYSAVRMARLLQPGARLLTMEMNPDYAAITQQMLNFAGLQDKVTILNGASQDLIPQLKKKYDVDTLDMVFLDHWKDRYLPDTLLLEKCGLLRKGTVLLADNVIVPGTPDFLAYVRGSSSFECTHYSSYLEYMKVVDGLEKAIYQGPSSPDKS
The series is described as follows: COMT inhibition in rat liver homogenates. It is filed as biochemical, Ratten. The text has this: Diese Wirkung kann wie folgt quantitativ erfasst werden: Man inkubiert Rattenleber-Homogenate in Gegenwart eines geeigneten Substrates wie in J. Neurochem. […] In einer zweiten Versuchsreihe wird die Inkubation in Gegenwart einer Verbindung der Formel Ia durchgeführt. Aus der Differenz der ermittelten COMT-Aktivitäten lässt sich dann die IC₅₀ berechnen. Die IC₅₀ wird in nMol/l angegeben und ist diejenige Konzentration in der Inkubationsmischung, welche notwendig ist, um die COMT-Aktivität um 50% herabzusetzen.

Series [2] is described as follows: Acute toxicity after a single oral administration to mice. The note with it: mouse, in vivo, p.o., read-out: DL₅₀.

As for `CCOC(=O)C(=O)c1cc(O)c(O)c([N+](=O)[O-])c1` [3,4-Dihydroxy-5-nitrophenylglyoxylsäureäthylester], in series [1], the pIC50 (commonly −log10 of the IC50, conventionally taken in molar units) was 7.32. The LD50 in series [2] lay within 1250 to 2500 mg/kg. Taken in the same sequence, the figures for `O=C(c1cc(O)c(O)c([N+](=O)[O-])c1)c1ccccc1F` [2'-Fluor-3,4-dihydroxy-5-nitrobenzophenon] were 7.38 and 312 to 625 mg/kg.

`O=C(c1cc(O)c(O)c([N+](=O)[O-])c1)c1ccccn1` [3,4-Dihydroxy-5-nitrophenyl-2-pyridylketon] showed a pIC50 in series [1] of 7.27. Moreover, the LD50 in series [2] was in the range of 1250 to 2500 mg/kg.

`O=C(c1ccncc1)c1cc(O)c(O)c([N+](=O)[O-])c1` [3,4-Dihydroxy-5-nitrophenyl-4-pyridylketon] had a pIC50 in series [1] of 7.17. Besides, in series [2], the LD50 lay in the range of 1000 to 2000 mg/kg.

As to `O=[N+]([O-])c1cc(O)c(O)c([N+](=O)[O-])c1` [3,5-Dinitropyrocatechol], the LD50 in series [2] lay within 500 to 1000 mg/kg. For the compound `CCCCOC(=O)C=Cc1cc(O)c(O)c([N+](=O)[O-])c1` [3,4-Dihydroxy-5-nitrozimtsäure-n-butylester], the negative-log IC50 (pIC50) in series [1] was 7.59. Further, in series [2], the LD50 is 2500 to 5000 mg/kg. The corresponding values for `O=C(c1cccnc1)c1cc(O)c(O)c([N+](=O)[O-])c1` [3,4-Dihydroxy-5-nitrophenyl-3-pyridylketon] are 7.33 and 1000 to 2000 mg/kg. The corresponding values for `CCCCOC(=O)c1cc(O)c(O)c([N+](=O)[O-])c1` [3,4-Dihydroxy-5-nitrobenzoesäure-n-butylester] are 7.70 and 312 to 625 mg/kg.

In series [1], `O=C(c1ccccc1)c1cc(O)c(O)c([N+](=O)[O-])c1` [3,4-Dihydroxy-5-nitrobenzophenon] had a negative logarithm of the IC50 (pIC50) of 7.32. Besides, the LD50 in series [2] lay within 500 to 1000 mg/kg.
